Assay results reported in the SangsterLogP compilation.

logP | Compound
5.31 | CCC(C)CC(=O)CC(O)C(CC(C)C)NC(=O)C(CCCCNC(N)=O)NC(=O)C(Cc1ccc2ccccc2c1)Cc1cccc2ccccc12 (stereo unspecified)
4.67 | CSC(=NC#N)NCCCCC(NC(=O)C(Cc1ccc2ccccc2c1)Cc1cccc2ccccc12)C(=O)NC(CC(C)C)C(O)CC(=O)NCCN1CCOCC1 (stereo unspecified)
6 | CC(C)(C)OC(=O)NCC#CCC(NC(=O)C(Cc1ccc2ccccc2c1)Cc1cccc2ccccc12)C(=O)NC(CC1CCCCC1)C(O)CC(=O)NCCN1CCOCC1 (stereo unspecified)
2.43 | CNC(=S)NCCCCC(NC(=O)C(CC(=O)N1CCOCC1)Cc1cccc2ccccc12)C(=O)NC(CC(C)C)C(O)CC(=O)NCCN1CCOCC1 (stereo unspecified)
7.69 | CC(C)CC(NC(=O)CC(O)C(CC(C)C)NC(=O)C(CCCCNC(=O)OCc1ccccc1)NC(=O)C(Cc1ccc2ccccc2c1)Cc1cccc2ccccc12)C(=O)NCc1ccccc1 (stereo unspecified)
5.63 | CCC(C)CNC(=O)CC(O)C(CC(C)C)NC(=O)C(CCCCNC(=O)NC)NC(=O)C(Cc1ccc2ccccc2c1)Cc1cccc2ccccc12 (stereo unspecified)
2.12 | CC(=O)NCC#CCC(NC(=O)C(Cc1ccccc1)NS(=O)(=O)N1CCOCC1)C(=O)NC(CC1CCCCC1)C(O)CC(=O)NCCN1CCOCC1 (stereo unspecified)
5.46 | CNC(=S)NCCCCC(NC(=O)C(Cc1ccc2ccccc2c1)Cc1cccc2ccccc12)C(=O)NC(CC1CCCCC1)C(O)CC(=O)NCCN1CCOCC1 (stereo unspecified)
2.32 | CC(C)CC(NC(=O)C(CCCCNC(=O)OCc1ccccc1)NC(=O)C(Cc1ccccc1)NS(=O)(=O)N1CCOCC1)C(=O)C(F)(F)C(=O)NCCN1CCOCC1 (stereo unspecified)
6.7 | CNC(=S)NCCCCC(NC(=O)C(Cc1ccc2ccccc2c1)Cc1cccc2ccccc12)C(=O)NC(CC(C)C)C(O)CC(=O)NC(CC(C)C)C(=O)NCc1ccccc1 (stereo unspecified)
7.09 | CCC(C)CNC(=O)CC(O)C(CC(C)C)NC(=O)C(CCCn1cccc1)NC(=O)C(Cc1ccc2ccccc2c1)Cc1cccc2ccccc12 (stereo unspecified)
7.21 | CCC(C)CNC(=O)CC(O)C(CC(C)C)NC(=O)C(CCCCn1cccc1)NC(=O)C(CC1=Cc2ccccc2C1)Cc1cccc2ccccc12 (stereo unspecified)
5.56 | CCC(C)CNC(=O)CC(O)C(CC(C)C)NC(=O)C(CC=CCNC(C)=O)NC(=O)C(Cc1ccc2ccccc2c1)Cc1cccc2ccccc12 (stereo unspecified)
5.51 | CCC(C)CNC(=O)C(F)(F)C(O)C(CC(C)C)NC(=O)C(CCCCNC(=NC#N)SC)NC(=O)C(Cc1ccc2ccccc2c1)Cc1cccc2ccccc12 (stereo unspecified)
2.93 | CNC(=S)NCCCCC(C(=O)NC(CC1CCCCC1)C(O)C(F)(F)C(=O)NCCN1CCOCC1)C(=O)C(Cc1ccccc1)NS(=O)(=O)N1CCOCC1 (stereo unspecified)
5.71 | CCC(C)CNC(=O)CC(O)C(CC(C)C)NC(=O)C(CCCCNC(=S)NC)NC(=O)C(Cc1ccc2ccccc2c1)Cc1cccc2ccccc12 (stereo unspecified)
5.64 | CCC(C)CNC(=O)CC(O)C(CC(C)C)NC(=O)C(CCCCCCNC(=S)NC)NC(=O)C(Cc1ccc2ccccc2c1)Cc1cccc2ccccc12 (stereo unspecified)
6.7 | CCC(C)CNC(=O)CC(O)C(CC(C)C)NC(=O)C(CCCCNS(=O)(=O)c1ccc(C)cc1)NC(=O)C(Cc1ccc2ccccc2c1)Cc1cccc2ccccc12 (stereo unspecified)

logP | Compound
5.23 | CCC(C)CNC(=O)CC(O)C(CC(C)C)NC(=O)C(CC=CCNC(=S)NC)NC(=O)C(Cc1ccc2ccccc2c1)Cc1cccc2ccccc12 (stereo unspecified)
6.63 | CCC(C)CNC(=O)CC(O)C(CC1CCCCC1)NC(=O)C(CCCCNC(=S)NC)NC(=O)C(Cc1ccc2ccccc2c1)Cc1cccc2ccccc12 (stereo unspecified)
6.6 | CCC(C)CNC(=O)CC(O)C(CC(C)C)NC(=O)C(CCCCNC(=S)Nc1ccccc1)NC(=O)C(Cc1ccc2ccccc2c1)Cc1cccc2ccccc12 (stereo unspecified)
2.25 | O=C(CC(O)C(CC1CCCCC1)NC(=O)C(NC(=O)C(Cc1ccccc1)NS(=O)(=O)N1CCOCC1)C1=CN=N1)NCCN1CCOCC1 (stereo unspecified)
2.64 | CNC(=S)NCCCCC(NC(=O)C(Cc1ccccc1)CS(=O)(=O)C(C)(C)C)C(=O)NC(CC1CCCCC1)C(O)CC(=O)NCCN1CCOCC1 (stereo unspecified)
2.41 | CNC(=S)NCCCCC(NC(=O)C(Cc1ccccc1)NS(=O)(=O)N(C)C)C(=O)NC(CC1CCCCC1)C(O)CC(=O)NCCN1CCOCC1 (stereo unspecified)
1.68 | CNC(=S)NCCCCC(NC(=O)C(CC(=O)N1CCOCC1)Cc1cccc2ccccc12)C(=O)NC(CC1CCCCC1)C(O)CC(=O)NCCN1CCOCC1 (stereo unspecified)
5.41 | CCC(C)CNC(=O)CC(O)C(CC(C)C)NC(=O)C(CCCCCNC(=S)NC)NC(=O)C(Cc1ccc2ccccc2c1)Cc1cccc2ccccc12 (stereo unspecified)
3.91 | CNC(=S)NCCCCC(NC(=O)C(Cc1ccc2ccccc2c1)Cc1cccc2ccccc12)C(=O)NC(CC(C)C)C(O)CC(=O)NCCN1CCOCC1 (stereo unspecified)
5.25 | CCC(C)CNC(=O)CC(O)C(CC(C)C)NC(=O)C(CCCCN)NC(=O)C(Cc1ccc2ccccc2c1)Cc1cccc2ccccc12 (stereo unspecified)
2.26 | CNC(=S)NCCCCC(NC(=O)C(Cc1ccccc1)NS(=O)(=O)N1CCOCC1)C(=O)NC(CC1CCCCC1)C(O)CC(=O)NCCN1CCOCC1 (stereo unspecified)
4.38 | CCC(C)CNC(=O)CC(O)C(CC(C)C)NC(=O)C(CCCCNC(C)=O)NC(=O)C(Cc1ccc2ccccc2c1)Cc1cccc2ccccc12 (stereo unspecified)
5.32 | CCC(C)CNC(=O)CC(O)C(CC(C)C)NC(=O)C(CC#CCNC(C)=O)NC(=O)C(Cc1ccc2ccccc2c1)Cc1cccc2ccccc12 (stereo unspecified)
5.44 | O=CNCC#CCC(NC(=O)C(Cc1cccc2ccccc12)Cc1cccc2ccccc12)C(=O)NC(CC1CCCCC1)C(O)CC(=O)NCCN1CCOCC1 (stereo unspecified)
5.44 | CNC(=S)NCC#CCC(NC(=O)C(Cc1ccc2ccccc2c1)Cc1cccc2ccccc12)C(=O)NC(CC1CCCCC1)C(O)CC(=O)NCCN1CCOCC1 (stereo unspecified)
2.9 | CNC(=S)NCC#CCC(NC(=O)C(Cc1ccccc1)NS(=O)(=O)N1CCOCC1)C(=O)NC(CC1CCCCC1)C(O)CC(=O)NCCN1CCOCC1 (stereo unspecified)
5.5 | CNC(=S)NCCCCC(NC(=O)C(Cc1ccc2ccccc2c1)Cc1cccc2ccccc12)C(=O)NC(CC(C)C)C(O)C(F)(F)C(=O)NCCN1CCOCC1 (stereo unspecified)

Compound | logP
CC(C)CC(NC(=O)C(CCCCNC(=N)N[N+](=O)[O-])NC(=O)C(Cc1cccc2ccccc12)Cc1cccc2ccccc12)C(O)CC(=O)NCCN1CCOCC1 (stereo unspecified) | 4.09
CCC(C)CNC(=O)CC(O)C(CC(C)C)NC(=O)C(CCCCCNC(=N)N[N+](=O)[O-])NC(=O)C(Cc1ccc2ccccc2c1)Cc1cccc2ccccc12 (stereo unspecified) | 5.1
N=C(NCC#CCC(NC(=O)C(Cc1cccc2ccccc12)Cc1cccc2ccccc12)C(=O)NC(CC1CCCCC1)C(O)CC(=O)NCCN1CCOCC1)N[N+](=O)[O-] (stereo unspecified) | 4.73
CCC(C)CNC(=O)CC(O)C(CC(C)C)NC(=O)C(CCCCNP(=O)(Oc1ccccc1)Oc1ccccc1)NC(=O)C(Cc1ccc2ccccc2c1)Cc1cccc2ccccc12 (stereo unspecified) | 7.88
CC(C)CC(NC(=O)CC(O)C(CC(C)C)NC(CCCCNC(=N)N[N+](=O)[O-])NC(=O)C(Cc1ccc2ccccc2c1)Cc1cccc2ccccc12)C(=O)NCc1ccccc1 (stereo unspecified) | 5.51
CC(C)CC(NC(=O)C(CCCCNC(=N)N[N+](=O)[O-])NC(=O)C(CC(=O)N1CCOCC1)Cc1cccc2ccccc12)C(O)CC(=O)NCCN1CCOCC1 (stereo unspecified) | 1.95
